Source: ChEMBL document CHEMBL1201862, “PubChem BioAssay data set” (2004)
The source made the active and inactive calls.

How the values were obtained:
Aminopeptidase N = biological target: T1, Aminopeptidase N (Plasmodium falciparum FcB1/Columbia, UniProt O96935); experiment: P. falciparum M1AAP inhibitors, biochemical, fluorogenic H-Leu-NHMec substrate, 1536-well (AID 1445); set-up: species or system Plasmodium falciparum 3D7, 3D7
T1 sequence (O96935 whole entry): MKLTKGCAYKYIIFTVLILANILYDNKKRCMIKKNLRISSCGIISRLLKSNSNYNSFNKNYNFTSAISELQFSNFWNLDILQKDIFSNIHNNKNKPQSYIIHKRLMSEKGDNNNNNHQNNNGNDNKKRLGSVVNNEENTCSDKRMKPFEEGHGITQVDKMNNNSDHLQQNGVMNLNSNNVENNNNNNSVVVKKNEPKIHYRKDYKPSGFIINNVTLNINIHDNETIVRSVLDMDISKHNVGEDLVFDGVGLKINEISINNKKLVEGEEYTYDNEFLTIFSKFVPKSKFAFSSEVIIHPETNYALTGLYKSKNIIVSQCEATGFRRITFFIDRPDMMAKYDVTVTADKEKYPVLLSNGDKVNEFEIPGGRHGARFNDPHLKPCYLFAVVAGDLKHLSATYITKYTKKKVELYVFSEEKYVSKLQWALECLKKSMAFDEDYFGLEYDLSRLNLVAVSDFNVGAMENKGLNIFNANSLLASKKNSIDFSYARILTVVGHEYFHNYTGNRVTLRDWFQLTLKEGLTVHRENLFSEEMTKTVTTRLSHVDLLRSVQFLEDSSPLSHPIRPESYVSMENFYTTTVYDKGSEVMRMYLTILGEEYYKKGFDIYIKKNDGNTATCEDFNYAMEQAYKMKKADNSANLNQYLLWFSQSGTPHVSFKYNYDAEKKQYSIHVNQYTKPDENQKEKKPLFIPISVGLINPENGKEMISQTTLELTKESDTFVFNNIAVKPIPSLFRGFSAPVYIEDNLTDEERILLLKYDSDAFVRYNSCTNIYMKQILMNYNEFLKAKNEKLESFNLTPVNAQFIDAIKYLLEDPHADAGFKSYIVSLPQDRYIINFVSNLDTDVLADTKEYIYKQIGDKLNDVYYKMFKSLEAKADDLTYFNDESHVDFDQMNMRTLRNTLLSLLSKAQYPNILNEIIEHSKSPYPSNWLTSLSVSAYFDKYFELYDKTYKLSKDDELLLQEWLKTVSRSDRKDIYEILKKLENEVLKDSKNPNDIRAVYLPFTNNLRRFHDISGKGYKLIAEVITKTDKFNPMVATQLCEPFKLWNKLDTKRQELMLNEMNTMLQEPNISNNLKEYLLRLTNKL

[1] = cytotoxicity in KRAS-transformed pancreatic duct cells, primary screen, cell-based, fluorescence, HTS (AID 431); assay type: functional; conditions: Homo sapiens;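 also: cell line used: HPDE-C7K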
[2] = cytotoxicity in HPDE-C7 cells, cell-based, fluorescence, HTS (AID 430); assay type: functional; conditions: Homo sapiens
[3] = biological target: Glyceraldehyde-3-phosphate dehydrogenase (Homo sapiens, UniProt P04406)
Bcl-2-related protein A1 [4] = biological target: T2, Bcl-2-related protein A1 (Mus musculus, UniProt Q07440); experiment: Bfl-1 binding inhibitors, SAR follow-up, biochemical, fluorescence polarization (AID 1070)
T2 sequence (Q07440 whole entry): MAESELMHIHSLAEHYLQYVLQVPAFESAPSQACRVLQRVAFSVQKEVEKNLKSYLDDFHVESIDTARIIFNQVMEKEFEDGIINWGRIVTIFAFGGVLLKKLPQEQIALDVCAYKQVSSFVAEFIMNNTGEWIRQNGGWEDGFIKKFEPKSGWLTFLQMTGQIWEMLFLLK

Bcl-2-related protein A1 [5] = biological target: T2, Bcl-2-related protein A1; experiment: Bfl-1 inhibitors blocking BH3 peptide binding, confirmation, biochemical, TR-FRET, mouse Bfl-1 (AID 621);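 also: TR-FRET binding of GST-Bfl-1 to FITC-labelled Bid peptide via terbium antibody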
Vero = experiment: cells; assay type: functional; conditions: Chlorocebus sabaeus
[6] = Luminescent dose response cell-based high throughput screening assay for inhibitors of the Janus kinase 2 mutant JAK2V617F. [Related pubchem assays: 1446 (Primary screen.), 1521 (Confirmation assay.), 1486 (Counter screen.)]; assay type: functional
[7] = C. albicans growth with fluconazole, confirmation, fluorescence, retest (AID 2467); assay type: functional, cell-based
[8] = NIH-3T3 fibroblast cytotoxicity, dose response, cytotoxicity control, cell-based, fluorescence, Alamar Blue, secondary assay (AID 2327); assay type: functional;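 also: NIH-3T3 mouse fibroblasts cultured with fluconazole at 8 µg/mL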
[9] = inhibitors of SNCA 5'UTR-driven reporter translation, confirmation, H4 neuroglioma cells, luminescence (AID 1988); assay type: functional, cell-based
[10] = inhibitors of firefly luciferase expression or activity, dose response, H4 neuroglioma cells, luminescence (AID 1990); assay type: functional, cell-based
[11] = cytotoxicity toward NIH3T3 fibroblasts, dose response, counter-screen, cell-based, ATP luminescence, mouse fibroblasts (AID 2010); assay type: functional;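 also: cells exposed to compound for about 90 hours before reading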
[12] = Luminescence Cell-Based Dose Response HTS to Identify Inhibitors of 5'UTR Stem-Loop Driven Prion Protein mRNA Translation in H4 Neuroglioblastoma Cells. [Related pubchem assays: 1827 (Project Summary), 1813 (Primary HTS)]; assay type: functional
cells [13] = experiment: cells
[14] = inhibitors of intracellular T. cruzi replication, confirmation, NIH3T3 host cells, beta-gal luminescence (AID 2044); assay type: functional, cell-based;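 also: intracellular parasites grown in NIH/3T3 mouse fibroblasts as host cells; luminescent beta-galactosidase reporter signal from transgenic T. cruzi replicating inside host cells; inhibitors lower the luminescence signal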
INS1 = experiment: beta cell apoptosis inhibitors, cytokine rescue, dose response, luminescence, retest (AID 449756); assay type: functional, cell-based; conditions: Rattus norvegicus;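 also: cell death triggered by IL-1 beta plus TNF-alpha plus IFN-gamma mixture; protective hits raise ATP signal compared with cytokine alone wells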
[15] = microbe, parasite or virus in culture; assay type: functional; conditions: Mycobacterium tuberculosis
[16] = biological target: Protein-tyrosine kinase 2-beta (Homo sapiens, UniProt Q14289);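 also: potency of inhibitors of PYK2 kinase phosphorylation of poly-GT substrate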
[17] = biological target: Heat shock protein HSP 90-alpha (Homo sapiens, UniProt P07900); assay type: functional, organism-based
[18] = A Cell Based Secondary Assay To Explore Cytotoxicity of Compounds that Sensitize Mycobacterium Tuberculosis to Beta-Lactam Antibiotics.; assay type: functional
Cytochrome P450 2D6 = Cytochrome P450 2D6 (Homo sapiens, UniProt P10635); experiment: qHTS Assay for Inhibitors and Substrates of Cytochrome P450 2D6. [Related pubchem assays: 410 ]; assay type: ADME; conditions: read-out: Potency
[19] = biological target: Lysosomal acid glucosylceramidase (Homo sapiens, UniProt P04062); experiment: Dose response cell-based high throughput screening assay to identify enhancers of beta-glucosidase activity. [Related pubchem assays: 784 ]; assay type: functional
[20] = control 3'UTR Renilla luciferase suppression, dose response, counter-screen for Shn3 inhibitor project, cell-based, Clone20-Shn3RL, cherry-picked (AID 624133); assay type: functional
[21] = HepG2 cell cytotoxicity, dose response, cytotoxicity control for Shn3 inhibitor project, CellTiter-Glo, cherry-picked (AID 624134); assay type: functional, cell-based
[22] = growth suppression of beta-catenin-knockout colon cells, dose response, cell-based, HCT116, human colon tumor (AID 1045); assay type: functional;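 also: HCT116 colon tumor cells with beta catenin knocked out; cells exposed to compound for 60 hours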
[23] = Shn3 3'UTR reporter inhibitors, dose response, cell-based, Clone20 osteoblasts, firefly luciferase, cherry-picked (AID 624132); assay type: functional;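 also: firefly luciferase luminescence from reporter carrying the Shn3 3'UTR in osteoblasts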
[24] = growth suppression of PTEN-null colon cells, dose response, cell-based, HCT116 PTEN knockout (AID 1047); assay type: functional;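 also: HCT116 colon tumor cells with PTEN knocked out; cells exposed to compound for 60 hours before readout; potency for loss of cell viability measured by luminescence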
[25] = HIV-1 Env-mediated cell fusion inhibitors, dose response, CCR5-tropic Env (AID 2279); assay type: functional
Major prion protein = Major prion protein (Homo sapiens, UniProt P04156); assay type: functional, cell-based
cells [26] = experiment: cells; remark: listed apart in the source
[27] = test system: Streptococcus sp. 'group A'; experiment: growth inhibition of control SK(-) GAS strain, dose response, counter-screen for streptokinase expression inhibitor project, luminescence, kanamycin, BacTiterGlo, confirmation (AID 1900); assay type: functional, organism-based
[28] = biological target: 26S proteasome non-ATPase regulatory subunit 14 (Homo sapiens, UniProt O00487); experiment: inhibition of proteasome subunit RPN11 – biochemical, fluorescence polarization, uHTS hits, confirmation (AID 602368); assay type: functional
Streptococcus = experiment: Group A Streptococcus viability loss, dose response, counter-screen for streptokinase expression inhibitor project, luminescence, BacTiterGlo (AID 1915); assay type: functional, organism-based;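 also: potency for reduction of bacterial viability or growth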
[29] = biological target: 72 kDa type IV collagenase (Homo sapiens, UniProt P08253); experiment: Dose Response validation of uHTS RPN11 inhibitor hits using a MMP-2 Fluorescence assay.; assay type: functional
Prothrombin = Prothrombin (Bos taurus, UniProt P00735); experiment: thrombin inhibition, dose response, biochemical, fluorescence polarization, uHTS hits (AID 602369); assay type: functional
Streptokinase A = biological target: T3, Streptokinase A (Streptococcus pyogenes serotype M1, UniProt P10520); experiment: S. pyogenes streptokinase expression inhibitors, potency, dose response, plasminogen activation absorbance, OD405 (AID 1914); assay type: functional, Streptococcus pyogenes M1 GAS;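 also: secreted streptokinase activity via plasminogen activation per viability signal from cell pellet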
T3 sequence (P10520 whole entry): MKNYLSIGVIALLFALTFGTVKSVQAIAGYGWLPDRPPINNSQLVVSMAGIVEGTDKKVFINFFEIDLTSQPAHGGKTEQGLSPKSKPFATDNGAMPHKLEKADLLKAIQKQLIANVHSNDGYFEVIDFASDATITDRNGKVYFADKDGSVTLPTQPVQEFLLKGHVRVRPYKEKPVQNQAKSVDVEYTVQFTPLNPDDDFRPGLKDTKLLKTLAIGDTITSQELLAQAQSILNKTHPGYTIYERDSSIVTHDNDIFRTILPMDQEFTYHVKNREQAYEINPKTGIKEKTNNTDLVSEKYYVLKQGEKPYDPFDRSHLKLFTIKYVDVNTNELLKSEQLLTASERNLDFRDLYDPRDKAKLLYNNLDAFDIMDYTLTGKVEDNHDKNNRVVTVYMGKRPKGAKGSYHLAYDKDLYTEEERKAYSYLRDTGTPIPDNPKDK

COC(=O)c1ccc(O)c(Sc2cc(C(=O)OC)ccc2O)c1
IC50 (Aminopeptidase N): 33.1 µM (active)
EC50 [1]: > 20 µM (not active)
EC50 [2]: 13.6 µM (active)

CCOC(=O)CS(=O)(=O)c1nc2c(c(C(F)(F)F)n1)CCc1ccccc1-2
IC50 [3]: > 100 µM (not active)
IC50 (Bcl-2-related protein A1 [4]): > 100 µM (not active)
IC50 (Bcl-2-related protein A1 [5]): > 100 µM (not active)

Cc1cccc(NC(=O)c2ccc([N+](=O)[O-])o2)c1
CC50 (Vero): 10 µM (active)
IC50 [6]: 1.18 µM (active)
EC50 [7]: 1.42 µM (active)
EC50 [8]: 18 µM (active)

CC(C)c1ccc(-n2c(-c3ccccc3)c[n+]3c2CCc2ccccc2-3)cc1
EC50 [9]: 11.7 µM (active)
EC50 [10]: 9.52 µM (active)
EC50 [11]: > 60 µM (not active)
EC50 [12]: > 120 µM (not active)
EC50 (cells [13]): 0.041 µM (active)
EC50 [14]: < 0.1 µM (active)

Fc1ccc(C[n+]2c(-c3ccccc3)cc(-c3ccccc3)cc2-c2ccccc2)cc1.[O-][Cl+3]([O-])([O-])[O-]
EC50 [9]: > 120 µM (not active)
EC50 [10]: 11.2 µM (active)
AC50 (INS1): 2.98 µM (active)
EC50 [11]: > 60 µM (not active)
CC50 [15]: > 40 µM (active)
EC50 [12]: 35.3 µM (active)
EC50 (cells [13]): 0.053 µM (active)
EC50 [14]: < 0.1 µM (active)

CC(C)(C)C(=O)Nc1nc2c(s1)COc1ccccc1-2
IC50 [16]: > 69.5 µM (not active)

OCCOCCn1c(C2CCCN2c2nc(-c3ccc(F)cc3)cs2)nc2cc(Cl)c(Cl)cc21 (stereo not drawn)
AC50 [17]: 6.11 µM (active)
CC50 [18]: 37.6 µM (active)

CC(C)[C@@]1(NC(=O)[C@H]2C[C@H]3c4cccc5[nH]cc(c45)C[C@@H]3N(C)C2)O[C@]2(O)[C@H]3CCCN3C(=O)[C@H](Cc3ccccc3)N2C1=O
AC50 (Cytochrome P450 2D6): 31.6 µM (inconclusive)

COc1ccc(OCC2CC3C(CCC(C)C3c3ccc(Br)cc3)C(=O)O2)cc1 (stereo not drawn)
AC50 (Cytochrome P450 2D6): 7.94 µM (inconclusive)

Cc1ccc(N2C(=O)Nc3ccc(Br)cc3C2(O)C(=O)NCCCN(C)C)cc1C (stereo not drawn)
EC50 [19]: > 50 µM (not active)

c1ccc(Cn2c(SCc3nc4ccccc4s3)nnc2-c2ccco2)cc1
EC50 [19]: > 50 µM (not active)

Cc1cc(C)c(O)c(-c2cc(C(=O)Nc3ccc(S(=O)(=O)N4CCOCC4)cc3)[nH]n2)c1
AC50 [20]: 7.37 µM (active)
AC50 [21]: 19.9 µM (active)
EC50 [22]: 10 µM (active)
AC50 [23]: 5.48 µM (active)
EC50 [24]: 8.35 µM (active)
EC50 [1]: 9.32 µM (active)
EC50 [2]: 9.42 µM (active)

CCOc1ccc(CCNC(=O)c2ccc3c(=O)[nH]c4c(C(=O)NC(C)C)sc(=S)n4c3c2)cc1
IC50 [25]: 30.1 µM (active)

Cc1cc(NC(=O)CSc2nc(C(C)C)nc3ccccc23)no1
IC50 (Major prion protein): 0.936 µM (active)
IC50 (cells [26]): > 138 µM (inactive)
IC50 [16]: > 69.5 µM (not active)

COc1cc([N+](=O)[O-])cc(/C=N/NC(=O)c2cc(-c3ccccc3)nc3ccccc23)c1O
EC50 [7]: 2.08 µM (active)
IC50 [25]: 31.7 µM (active)
AC50 (INS1): 3.63 µM (active)
EC50 [8]: 22.5 µM (inconclusive)
EC50 [27]: 5.37 µM (active)
IC50 [28]: 22.3 µM (active)
EC50 (Streptococcus): 8.58 µM (active)
IC50 [29]: 3.79 µM (active)
IC50 (Prothrombin): 75.1 µM (active)
EC50 (Streptokinase A): > 150 µM (not active)

Cc1cc(O)nc(N/N=C/c2c(F)c(F)c(F)c(F)c2F)n1
CC50 [18]: > 40 µM (active)
